Reference: the supplement of paper PMC10307832

Columns and labels:
Assay in all cases: relative viability (nuclei count vs DMSO), 5 days (fraction); higher = more cells survive
[1] = compound: C[C@@]1(C(=O)Nc2ccc(F)nc2)CCCN1c1nc(Nc2cc(C3CC3)n[nH]2)c2cccn2n1 + CC(C)C[C@H](NC(=O)[C@H](Cc1ccccc1)NC(=O)c1cnccn1)B(O)O [Bortezomib] (partner 0.002 µM)
Outline: (§1)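 After 5 days of treatment, lung cancer cells in 1536-well plates were fixed and stained in a single step (final 0.05% Triton X-100, 1% formaldehyde, 1 ug/ml Hoechst) and their nuclei counted on 4× images. Treatment had been applied by pin tool the day after seeding as one drug alone or as a fixed anchor-drug dose with five library-drug doses (not always all listed) in √10 steps. Relative viability is the nuclei count of treated wells divided by that of vehicle wells, and values are medians of duplicate plates.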

[2] = compound: C[C@@]1(C(=O)Nc2ccc(F)nc2)CCCN1c1nc(Nc2cc(C3CC3)n[nH]2)c2cccn2n1 + Nc1nc2[nH]cc(CCc3ccc(C(=O)N[C@@H](CCC(=O)O)C(=O)O)cc3)c2c(=O)[nH]1 [Pemetrexed] (partner 0.2 µM)
Outline: as §1

[3] = compound: C[C@@]1(C(=O)Nc2ccc(F)nc2)CCCN1c1nc(Nc2cc(C3CC3)n[nH]2)c2cccn2n1 + Cc1cc(Nc2cc(N3CCN(C)CC3)nc(Sc3ccc(NC(=O)C4CC4)cc3)n2)n[nH]1 [Tozasertib] (partner 0.1 µM)
Outline: as §1

Motesanib + Dasatinib = compound: CC1(C)CNc2cc(NC(=O)c3cccnc3NCc3ccncc3)ccc21 [Motesanib] + Cc1nc(Nc2ncc(C(=O)Nc3c(C)cccc3Cl)s2)cc(N2CCN(CCO)CC2)n1 [Dasatinib] (partner 0.075 µM)
Outline: as §1

| Cell Line | relative viability ([1]; first compound 0.04 µM) | relative viability ([1]; first compound 0.1265 µM) | relative viability ([1]; first compound 0.4 µM) | relative viability ([1]; first compound 1.265 µM) | relative viability ([2]; first compound 0.04 µM) | relative viability ([2]; first compound 0.1265 µM) | relative viability ([2]; first compound 0.4 µM) | relative viability ([2]; first compound 1.265 µM) | relative viability ([3]; first compound 0.04 µM) | relative viability ([3]; first compound 0.1265 µM) | relative viability ([3]; first compound 0.4 µM) | relative viability ([3]; first compound 1.265 µM) | relative viability (Motesanib + Dasatinib; first compound 0.01 µM) | relative viability (Motesanib + Dasatinib; first compound 0.03162 µM) | relative viability (Motesanib + Dasatinib; first compound 0.1 µM) | relative viability (Motesanib + Dasatinib; first compound 0.3162 µM) | relative viability (Motesanib + Dasatinib; first compound 1 µM) |
| --- | --- | --- | --- | --- | --- | --- | --- | --- | --- | --- | --- | --- | --- | --- | --- | --- | --- |
| 201T | 1.1 | 0.958 | 1.01 | 0.957 | 0.324 | 0.285 | 0.294 | 0.304 | 0.827 | 0.709 | 0.431 | 0.863 | 0.575 | 0.519 | 0.559 | 0.595 | 0.535 |
| A-427 | 1 | 0.995 | 0.897 | 1.01 | 0.989 | 0.939 | 0.927 | 0.813 | 0.234 | 0.192 | 0.173 | 0.198 | 0.606 | 0.724 | 0.663 | 0.721 | 0.81 |
| ABC-1 | 0.329 | 0.318 | 0.264 | 0.183 | – | – | – | – | 0.2 | 0.128 | 0.184 | 0.165 | 0.518 | 0.544 | 0.605 | 0.65 | 0.619 |
| BEN | 1.11 | 0.785 | 0.815 | 0.903 | 0.919 | 0.65 | 0.616 | 0.653 | 0.551 | 0.529 | 0.517 | 0.501 | 0.286 | 0.342 | 0.333 | 0.325 | 0.343 |
| CAL-12T | 1.12 | 0.826 | 0.957 | 0.734 | 0.818 | 0.999 | 0.777 | 0.812 | 0.249 | 0.27 | 0.275 | 0.189 | 0.414 | 0.339 | 0.479 | 0.522 | 0.546 |
| COR-L23 | 1.06 | 1.01 | 0.936 | 0.583 | 0.203 | 0.198 | 0.173 | 0.183 | 0.195 | 0.23 | 0.131 | 0.107 | 0.561 | 0.59 | 0.515 | 0.499 | 0.451 |
| COR-L 105 | 0.709 | 0.631 | 0.415 | 0.373 | 1.07 | 0.658 | 0.865 | 1.1 | 0.373 | 0.332 | 0.426 | 0.3 | 0.407 | 0.243 | 0.308 | 0.401 | 0.394 |
| Calu-6 | 1.01 | 0.957 | 0.929 | 0.359 | – | – | – | – | – | – | – | – | – | – | – | – | – |
| ChaGo-K-1 | 1.01 | 0.797 | 1.1 | 0.824 | 0.252 | 0.253 | 0.273 | 0.258 | 0.209 | 0.197 | 0.201 | 0.207 | 0.55 | 0.535 | 0.544 | 0.696 | 0.691 |
| EBC-1 | 0.527 | 0.509 | 0.52 | 0.302 | – | – | – | – | – | – | – | – | – | – | – | – | – |
| EKVX | 1.01 | 1.05 | 0.796 | 0.926 | 0.415 | 0.307 | 0.349 | 0.356 | 0.363 | 0.349 | 0.259 | 0.28 | 0.592 | 0.462 | 0.527 | 0.654 | 0.505 |
| EMC-BAC-2 | 0.948 | 0.871 | 0.804 | 0.78 | 0.454 | 0.42 | 0.471 | 0.439 | 0.25 | 0.277 | 0.215 | 0.201 | 0.292 | 0.34 | 0.342 | 0.339 | 0.303 |
| EPLC-272H | 0.859 | 0.78 | 0.702 | 0.878 | 0.358 | 0.291 | 0.349 | 0.23 | 0.182 | – | 0.178 | 0.287 | 0.344 | 0.405 | – | 0.421 | 0.287 |
| H3255 | 0.973 | 1.02 | 0.719 | 0.669 | 0.602 | 0.523 | 0.528 | 0.484 | 0.695 | 0.781 | 0.656 | 0.582 | 0.304 | 0.38 | 0.473 | 0.302 | 0.338 |
| HARA | 1.11 | 1.12 | 0.684 | 1.05 | 0.222 | 0.241 | 0.227 | 0.228 | 0.367 | 0.103 | 0.0758 | 0.79 | 0.225 | 0.2 | 0.215 | 0.303 | 0.3 |
| HCC-15 | 0.943 | 0.742 | 0.881 | 1 | 0.216 | 0.225 | 0.209 | 0.211 | 0.403 | 0.337 | 0.119 | 0.169 | 0.648 | 0.53 | 0.648 | 0.758 | 0.723 |
| HCC-44 | 0.862 | 0.81 | 0.648 | 0.685 | 0.688 | 0.6 | 0.627 | 0.618 | 0.858 | 0.616 | 0.574 | 0.362 | – | – | – | – | – |
| HCC-78 | 0.445 | 0.855 | 0.293 | 0.317 | 0.898 | 0.898 | 0.913 | 0.922 | 0.37 | 0.27 | 0.308 | 0.33 | 0.342 | 0.406 | 0.291 | 0.391 | 0.437 |
| HCC-366 | 1.06 | 1.04 | 1 | 0.802 | 0.21 | 0.245 | 0.212 | 0.163 | 0.677 | 0.102 | 0.0503 | 0.637 | 0.666 | 0.553 | 0.552 | 0.631 | 0.808 |
| HCC-827 | 1.07 | 1.03 | 0.971 | 0.926 | 0.264 | 0.284 | 0.244 | 0.277 | 0.443 | 0.491 | 0.373 | 0.42 | 0.308 | 0.307 | 0.293 | 0.274 | 0.228 |
| HOP-62 | 0.752 | 0.67 | 0.704 | 1.02 | 0.294 | 0.297 | 0.315 | 0.341 | 0.371 | 0.393 | 0.298 | 0.337 | 0.658 | 0.6 | 0.715 | 0.692 | 0.757 |
